Where two headings read alike, the source gives them in different places.
Experiments:
[1] = tested on: experimentally induced NE (Eimeria spp. and Clostridium perfringens challenge); type: in vivo, male Ross 308 broilers
[2] = tested on: necrotic enteritis (Clostridium perfringens inoculations); type: in vivo, male Ross 308 broilers; conditions: for NE score: four chickens per pen
E. acervulina = test: Coccidiosis lesion scoring (Johnson and Reid, 0-4); type: in vivo, male Ross 308 broilers; conditions: score 0 (no lesions) to 4 (severe lesions)
E. maxima = test: Coccidiosis lesion scoring (Johnson and Reid, 0-4); type: in vivo, male Ross 308 broilers; conditions: score 0 (no lesions) to 4 (severe lesions)
[3] = tested on: Eimeria (overall coccidiosis lesions); test: Overall coccidiosis lesions (TMLS); type: in vivo, male Ross 308 broilers
[4] = compared to some amino acids such as glycine or arginine; cited from earlier work
[5] = day 16 to day 22, challenge period

SMILES: N=C(N)NCC(=O)O [GAA, guanidinoacetic acid]
- Effect on daily feed intake (DFI) over untreated birds ([1]; any period (p>0.05) except a small effect in the pre-challenge period): no significant effect
- FCR compared with untreated birds ([1]; challenge period and overall): significantly lower
- Daily weight gain (DWG) compared with IUC birds ([1]; challenge period from day 16 to d22): significantly higher
- BW_D0 (body weight) ([1]; day 0, before challenge, treatment mean): 46
- DFI_D0-D16 (daily feed intake) ([1]; day 0 to day 16, pre-challenge): 45.9
- DWG_D0-D16 (daily weight gain) ([1]; day 0 to day 16, pre-challenge): 41.0
- FCR_D0-D16 (feed conversion ratio) ([1]; day 0 to day 16, pre-challenge): 1.12
- DFI_D0-D42 (daily feed intake) ([1]; day 0 to day 42, overall): 112.1
- DWG_D0-D42 (daily weight gain) ([1]; day 0 to day 42, overall): 62.6
- FCR_D0-42 (feed conversion ratio) ([1]; day 0 to day 42, overall): 1.80
- BW_D16 (body weight) ([1]; day 16, treatment mean): 711
- DFI_D16-D22 (daily feed intake) [1, 5]: 84.4
- DWG_D16-D22 (daily weight gain) [1, 5]: 72.2
- FCR_D16-D22 (feed conversion ratio) [1, 5]: 1.18
- BW_D22 (body weight) ([1]; day 22, after NE challenge, treatment mean): 1161
- DFI_D22-D34 (daily feed intake) ([1]; day 22 to day 34): 117.3
- DWG_D22-D34 (daily weight gain) ([1]; day 22 to day 34): 75.3
- FCR_D22-D34 (feed conversion ratio) ([1]; day 22 to day 34): 1.56
- BW_D34 (body weight) ([1]; day 34, treatment mean): 2463
- DFI_D34-D42 (daily feed intake) ([1]; day 34 to day 42): 191.0
- DWG_D34-D42 (daily weight gain) ([1]; day 34 to day 42): 108.7
- FCR_D34-D42 (feed conversion ratio) ([1]; day 34 to day 42): 1.77
- BW_D42 (body weight) ([1]; day 42, treatment mean): 3332
- Weight gained more than the negative control ([1]; grower phase): approximately 9 g/day
- Weight gained more than the negative control ([1]; overall): approximately 2 g/day
- Percentage of NE related mortalities ([1]; overall, on par with antibiotics treated control): strongly reduced
- NE related mortality ([1]; percentage of NE related mortalities, overall): 3.33
- NE percentage (percentage of NE affected birds) ([2]; day 21): 85
- NE score ([2]; day 21): 3.52
- NE percentage (percentage of NE affected birds) ([2]; day 22): 73
- NE scores and percentage of NE affected birds compared with untreated control ([2]; day 22): lower NE scores and a lower percentage of NE affected birds
- NE score ([2]; day 22): 2.33
- E. acervulina (lesion score) (E. acervulina; day 21): 0.08
- E. acervuline (lesion score) (E. acervulina; day 22): 0.06
- E. maxima (lesion score) (E. maxima; day 21): 0.52
- E. maxima (lesion score) (E. maxima; day 22): 0.88
- E. maxima and coccidiosis lesions compared with untreated control ([3]; day 21): lower amounts
- TMLS (overall coccidiosis lesions) ([3]; day 21): 0.60
- TMLS (overall coccidiosis lesions) ([3]; day 22): 0.94
- Solubility in water [4]: rather low solubility in water

From patent US20260232610A1 (priority 2023, published 2026)
